Laboratory results: ChEMBL document CHEMBL1201861, “Genomics of Drug Sensitity in Cancer screening data, Wellcome Trust Sanger Institute”
pIC50: −log10 of the molar value.

Key:
Test in all cases: cells
Settings in all cases: Homo sapiens
[1] = tested on: CP66-MEL; assay type: functional, cell-based;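 further: growth inhibition of CP66-MEL cells determined in a cell viability assay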
Description: SANGER: Inhibition of human CP66-MEL cell growth in a cell viability assay.

[2] = tested on: CTV-1; assay type: functional, cell-based;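 further: growth inhibition of the cell line, read out with a cell viability assay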
Description: SANGER: Inhibition of human CTV-1 cell growth in a cell viability assay.

[3] = tested on: D-263MG; assay type: functional, cell-based
Description: SANGER: Inhibition of human D-263MG cell growth in a cell viability assay.

[4] = tested on: DB; assay type: functional, cell-based
Description: SANGER: Inhibition of human DB cell growth in a cell viability assay.

[5] = tested on: DU-4475; assay type: functional, cell-based
Description: SANGER: Inhibition of human DU-4475 cell growth in a cell viability assay.

[6] = tested on: ES6; assay type: functional, cell-based;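 further: growth inhibition of human ES6 cells, read out with a cell viability assay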
Description: SANGER: Inhibition of human ES6 cell growth in a cell viability assay.

[7] = tested on: EW-24; assay type: functional, cell-based;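 further: human EW-24 cancer cell line, growth inhibition read out via a cell viability assay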
Description: SANGER: Inhibition of human EW-24 cell growth in a cell viability assay.

[8] = tested on: GCIY; assay type: functional, cell-based;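 further: growth inhibition of the human GCIY cell line, read out by a cell viability assay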
Description: SANGER: Inhibition of human GCIY cell growth in a cell viability assay.

[9] = tested on: GI-ME-N; assay type: functional, cell-based;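 further: growth inhibition of human GI-ME-N cells, read out with a cell viability assay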
Description: SANGER: Inhibition of human GI-ME-N cell growth in a cell viability assay.

[10] = tested on: HC-1; assay type: functional, cell-based;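 further: growth inhibition of HC-1 cells measured by a cell viability assay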
Description: SANGER: Inhibition of human HC-1 cell growth in a cell viability assay.

[11] = tested on: HCC1599; assay type: functional, cell-based;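 further: growth inhibition of HCC1599 cells, read out in a cell viability assay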
Description: SANGER: Inhibition of human HCC1599 cell growth in a cell viability assay.

[12] = tested on: HuTu80; assay type: functional, cell-based, HUTU-80;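 further: growth inhibition of HuTu80 human cells, determined with a cell viability readout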
Description: SANGER: Inhibition of human HUTU-80 cell growth in a cell viability assay.

[13] = tested on: IST-MEL1; assay type: functional, cell-based;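 further: growth inhibition of the cell line, read out with a cell viability assay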
Description: SANGER: Inhibition of human IST-MEL1 cell growth in a cell viability assay.

[14] = tested on: IST-MES1; assay type: functional, cell-based;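 further: growth inhibition of IST-MES1 cells, measured with a cell viability assay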
Description: SANGER: Inhibition of human IST-MES1 cell growth in a cell viability assay.

[15] = tested on: KE-37; assay type: functional, cell-based;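 further: growth inhibition of KE-37 cells, read out with a cell viability assay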
Description: SANGER: Inhibition of human KE-37 cell growth in a cell viability assay.

[16] = tested on: KM-H2; assay type: functional, cell-based;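 further: growth inhibition of KM-H2 cells, read out by a cell viability assay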
Description: SANGER: Inhibition of human KM-H2 cell growth in a cell viability assay.

[17] = tested on: KNS-81-FD; assay type: functional, cell-based;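 further: growth inhibition of KNS-81-FD cells, read out with a cell viability assay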
Description: SANGER: Inhibition of human KNS-81-FD cell growth in a cell viability assay.

[18] = tested on: KURAMOCHI; assay type: functional, cell-based;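 further: growth inhibition of KURAMOCHI cells, read out with a cell viability assay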
Description: SANGER: Inhibition of human KURAMOCHI cell growth in a cell viability assay.

[19] = tested on: L-540; assay type: functional, cell-based;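 further: growth inhibition of the human L-540 cell line, read out with a viability assay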
Description: SANGER: Inhibition of human L-540 cell growth in a cell viability assay.

[20] = tested on: LB373-MEL-D; assay type: functional, cell-based;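 further: growth inhibition of the cell line, read out in a cell viability assay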
Description: SANGER: Inhibition of human LB373-MEL-D cell growth in a cell viability assay.

[21] = tested on: Lu-65; assay type: functional, cell-based;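 further: growth inhibition of Lu-65 cancer cells, read out by a cell viability assay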
Description: SANGER: Inhibition of human LU-65 cell growth in a cell viability assay.

[22] = tested on: LXF-289 cell line; assay type: functional, cell-based
Description: SANGER: Inhibition of human LXF-289 cell growth in a cell viability assay.

[23] = tested on: MEG-01; assay type: functional, cell-based;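 further: growth inhibition of MEG-01 cells, read out by a cell viability assay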
Description: SANGER: Inhibition of human MEG-01 cell growth in a cell viability assay.

[24] = tested on: MMAC-SF; assay type: functional, cell-based;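 further: growth inhibition of human MMAC-SF cells, read out with a cell viability assay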
Description: SANGER: Inhibition of human MMAC-SF cell growth in a cell viability assay.

[25] = tested on: MS-1; assay type: functional, cell-based;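 further: growth inhibition of MS-1 cells, read out by cell viability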
Description: SANGER: Inhibition of human MS-1 cell growth in a cell viability assay.

[26] = tested on: MSTO-211H; assay type: functional, cell-based
Description: SANGER: Inhibition of human MSTO-211H cell growth in a cell viability assay.

[27] = tested on: MV4-11; assay type: functional, cell-based, MV-4-11;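 further: cell viability readout measuring growth inhibition of human MV-4-11 cells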
Description: SANGER: Inhibition of human MV-4-11 cell growth in a cell viability assay.

[28] = tested on: MZ7-mel; assay type: functional, cell-based;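 further: growth inhibition of human MZ7-mel cells, measured by a cell viability assay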
Description: SANGER: Inhibition of human MZ7-mel cell growth in a cell viability assay.

[29] = tested on: Mo; assay type: functional, cell-based
Description: SANGER: Inhibition of human Mo-T cell growth in a cell viability assay.

[30] = tested on: NB5; assay type: functional, cell-based;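 further: growth inhibition of NB5 cells, read out as cell viability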
Description: SANGER: Inhibition of human NB5 cell growth in a cell viability assay.

[31] = tested on: NB6; assay type: functional, cell-based;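 further: growth inhibition of NB6 cells, read out by a cell viability assay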
Description: SANGER: Inhibition of human NB6 cell growth in a cell viability assay.

[32] = tested on: NCI-H1395; assay type: functional, cell-based;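 further: cell viability assay read-out quantifying reduced proliferation of human NCI-H1395 cells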
Description: SANGER: Inhibition of human NCI-H1395 cell growth in a cell viability assay.

[33] = tested on: NCI-H1650; assay type: functional, cell-based;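 further: growth inhibition of human NCI-H1650 cells measured by a cell viability assay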
Description: SANGER: Inhibition of human NCI-H1650 cell growth in a cell viability assay.

[34] = tested on: NCI-H526; assay type: functional, cell-based;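 further: growth inhibition of the human NCI-H526 cell line, measured by a cell viability assay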
Description: SANGER: Inhibition of human NCI-H526 cell growth in a cell viability assay.

[35] = tested on: NCI-H720; assay type: functional, cell-based;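 further: growth inhibition of human NCI-H720 cells determined by a cell viability assay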
Description: SANGER: Inhibition of human NCI-H720 cell growth in a cell viability assay.

[36] = tested on: NEC8; assay type: functional, cell-based;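 further: growth inhibition of human NEC8 cells, read out by a cell viability assay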
Description: SANGER: Inhibition of human NEC8 cell growth in a cell viability assay.

[37] = tested on: NKM-1; assay type: functional, cell-based;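 further: growth inhibition of NKM-1 cells, read out with a cell viability assay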
Description: SANGER: Inhibition of human NKM-1 cell growth in a cell viability assay.

[38] = tested on: RH-1; assay type: functional, cell-based;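 further: growth inhibition of human RH-1 cells, read out with a cell viability assay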
Description: SANGER: Inhibition of human RH-1 cell growth in a cell viability assay.

[39] = tested on: RPMI-8866; assay type: functional, cell-based
Description: SANGER: Inhibition of human RPMI-8866 cell growth in a cell viability assay.

[40] = tested on: RS4-11; assay type: functional, cell-based;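 further: growth inhibition of RS4-11 cells, read out by a cell viability assay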
Description: SANGER: Inhibition of human RS4-11 cell growth in a cell viability assay.

[41] = tested on: SCC-15; assay type: functional, cell-based;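 further: growth inhibition of SCC-15 cells, read out with a cell viability assay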
Description: SANGER: Inhibition of human SCC-15 cell growth in a cell viability assay.

[42] = tested on: SF-126; assay type: functional, cell-based;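 further: growth inhibition of human SF126 cells, read out with a cell viability assay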
Description: SANGER: Inhibition of human SF126 cell growth in a cell viability assay.

[43] = tested on: SF-268; assay type: functional, cell-based;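 further: growth inhibition of SF-268 cells determined with a cell viability assay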
Description: SANGER: Inhibition of human SF268 cell growth in a cell viability assay.

[44] = tested on: SK-N-FI; assay type: functional, cell-based;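 further: cell viability assay measuring growth inhibition of human SK-N-FI cells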
Description: SANGER: Inhibition of human SK-N-FI cell growth in a cell viability assay.

[45] = tested on: SNB-75; assay type: functional, cell-based;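 further: cell viability assay measuring growth inhibition of human SNB-75 cells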
Description: SANGER: Inhibition of human SNB75 cell growth in a cell viability assay.

[46] = tested on: SW 962; assay type: functional, cell-based;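 further: growth inhibition of human SW962 cells, read out by a cell viability assay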
Description: SANGER: Inhibition of human SW962 cell growth in a cell viability assay.

[47] = tested on: AM-38; assay type: functional, cell-based;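 further: growth inhibition of AM-38 cells of human origin, read out by a cell viability assay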
Description: SANGER: Inhibition of human AM-38 cell growth in a cell viability assay.

[48] = tested on: ATN-1; assay type: functional, cell-based;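 further: growth inhibition of human ATN-1 cells, read out with a cell viability assay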
Description: SANGER: Inhibition of human ATN-1 cell growth in a cell viability assay.

[49] = tested on: BE-13; assay type: functional, cell-based;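 further: growth inhibition of human BE-13 cells, measured with a cell viability assay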
Description: SANGER: Inhibition of human BE-13 cell growth in a cell viability assay.

[50] = tested on: BT-474; assay type: functional, cell-based
Description: SANGER: Inhibition of human BT-474 cell growth in a cell viability assay.

[51] = tested on: Becker; assay type: functional, cell-based;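 further: growth inhibition of Becker cells, read out with a cell viability assay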
Description: SANGER: Inhibition of human Becker cell growth in a cell viability assay.

[52] = tested on: C2BBe1; assay type: functional, cell-based;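 further: growth inhibition of C2BBe1 cells, read out through a viability assay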
Description: SANGER: Inhibition of human C2BBe1 cell growth in a cell viability assay.

[53] = tested on: TE-12; assay type: functional, cell-based;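 further: growth inhibition of TE-12 cells, read out by a cell viability assay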
Description: SANGER: Inhibition of human TE-12 cell growth in a cell viability assay.

[54] = tested on: TGBC24TKB; assay type: functional, cell-based;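 further: growth inhibition of human TGBC24TKB cells, read out with a cell viability assay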
Description: SANGER: Inhibition of human TGBC24TKB cell growth in a cell viability assay.

[55] = tested on: VA-ES-BJ; assay type: functional, cell-based;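 further: growth inhibition of the VA-ES-BJ cell line, read out by a cell viability assay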
Description: SANGER: Inhibition of human VA-ES-BJ cell growth in a cell viability assay.

[56] = tested on: COLO-684; assay type: functional, cell-based
Description: SANGER: Inhibition of human COLO-684 cell growth in a cell viability assay.

[57] = tested on: G-401; assay type: functional, cell-based
Description: SANGER: Inhibition of human G-401 cell growth in a cell viability assay.

[58] = tested on: HCC 2998; assay type: functional, cell-based;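 further: growth inhibition of human HCC2998 cells, measured with a cell viability read-out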
Description: SANGER: Inhibition of human HCC2998 cell growth in a cell viability assay.

[59] = tested on: HO-1-N-1; assay type: functional, cell-based
Description: SANGER: Inhibition of human HO-1-N-1 cell growth in a cell viability assay.

[60] = tested on: NCI-H292; assay type: functional, cell-based
Description: SANGER: Inhibition of human NCI-H292 cell growth in a cell viability assay.

[61] = tested on: NCI-H358; assay type: functional, cell-based
Description: SANGER: Inhibition of human NCI-H358 cell growth in a cell viability assay.

[62] = tested on: PFSK-1; assay type: functional, cell-based
Description: SANGER: Inhibition of human PFSK-1 cell growth in a cell viability assay.

[63] = tested on: SCC-9; assay type: functional, cell-based
Description: SANGER: Inhibition of human SCC-9 cell growth in a cell viability assay.

[64] = tested on: SW780; assay type: functional, cell-based
Description: SANGER: Inhibition of human SW780 cell growth in a cell viability assay.

[65] = tested on: SiHa; assay type: functional, cell-based
Description: SANGER: Inhibition of human SiHa cell growth in a cell viability assay.

[66] = tested on: CAL-33; assay type: functional, cell-based
Description: SANGER: Inhibition of human CAL-33 cell growth in a cell viability assay.

## Cc1n[nH]c2ccc(-c3cncc(OC[C@@H](N)Cc4c[nH]c5ccccc45)c3)cc12 [A-443654]
[1]
  pIC50: 6.34
[2]
  pIC50: 6.49
[3]
  pIC50: < 5.99
[4]
  pIC50: 6.43
[5]
  pIC50: 6.10
[6]
  pIC50: 7.04
[7]
  pIC50: 6.08
[8]
  pIC50: 6.58
[9]
  pIC50: 6.56
[10]
  pIC50: 6.68
[11]
  pIC50: 6.79
[12]
  pIC50: 6.94
[13]
  pIC50: 6.35
[14]
  pIC50: < 5.99
[15]
  pIC50: 6.96
[16]
  pIC50: < 5.99
[17]
  pIC50: < 5.99
[18]
  pIC50: 6.61
[19]
  pIC50: 6.46
[20]
  pIC50: 6.27
[21]
  pIC50: < 5.99
[22]
  pIC50: 6.75
[23]
  pIC50: 6.09
[24]
  pIC50: < 5.99
[25]
  pIC50: < 5.99
[26]
  pIC50: < 5.99
[27]
  pIC50: 7.24
[28]
  pIC50: 6.25
[29]
  pIC50: < 5.99
[30]
  pIC50: 6.18
[31]
  pIC50: 6.32
[32]
  pIC50: < 5.99
[33]
  pIC50: < 5.99
[34]
  pIC50: < 5.99
[35]
  pIC50: 6.81
[36]
  pIC50: < 5.99
[37]
  pIC50: < 5.99
[38]
  pIC50: < 5.99
[39]
  pIC50: < 5.99
[40]
  pIC50: 6.77
[41]
  pIC50: < 5.99
[42]
  pIC50: 6.51
[43]
  pIC50: < 5.99
[44]
  pIC50: 6.07
[45]
  pIC50: 6.94
[46]
  pIC50: 6.59
[47]
  pIC50: < 5.99
[48]
  pIC50: < 5.99
[49]
  pIC50: 6.30
[50]
  pIC50: 6.23
[51]
  pIC50: 6.52
[52]
  pIC50: < 5.99
[53]
  pIC50: 6.71
[54]
  pIC50: 6.09
[55]
  pIC50: 6.89
[56]
  pIC50: 7.10

## CC[C@]1(O)C[C@@H]2CN(CCc3c([nH]c4ccccc34)[C@@](C(=O)OC)(c3cc4c(cc3OC)N(C)[C@H]3[C@@](O)(C(=O)OC)[C@H](OC(C)=O)[C@]5(CC)C=CCN6CC[C@]43[C@@H]65)C2)C1 [VINBLASTINE]
[1]
  pIC50: 7.31
[2]
  pIC50: 8.85
[3]
  pIC50: 8.03
[4]
  pIC50: 8.77
[5]
  pIC50: < 7.00
[6]
  pIC50: < 7.00
[7]
  pIC50: 7.74
[57]
  pIC50: 8.06
[8]
  pIC50: 7.30
[9]
  pIC50: 8.22
[10]
  pIC50: 8.38
[58]
  pIC50: 7.70
[59]
  pIC50: 8.76
[12]
  pIC50: 7.91
[13]
  pIC50: 8.34
[14]
  pIC50: 7.17
[15]
  pIC50: 8.40
[16]
  pIC50: 8.27
[17]
  pIC50: 7.70
[18]
  pIC50: < 7.00
[20]
  pIC50: 7.19
[21]
  pIC50: < 7.00
[22]
  pIC50: 7.99
[23]
  pIC50: 7.83
[24]
  pIC50: 7.82
[25]
  pIC50: 7.51
[26]
  pIC50: 7.91
[27]
  pIC50: 8.55
[28]
  pIC50: 7.96
[29]
  pIC50: < 7.00
[30]
  pIC50: 7.80
[31]
  pIC50: 7.10
[32]
  pIC50: 8.37
[33]
  pIC50: < 7.00
[60]
  pIC50: 8.52
[61]
  pIC50: 7.43
[34]
  pIC50: 8.29
[35]
  pIC50: 8.16
[36]
  pIC50: 8.29
[37]
  pIC50: 8.90
[62]
  pIC50: 8.30
[38]
  pIC50: 8.47
[39]
  pIC50: 8.71
[40]
  pIC50: 8.35
[41]
  pIC50: 7.64
[63]
  pIC50: 7.97
[42]
  pIC50: 7.66
[43]
  pIC50: 7.79
[44]
  pIC50: < 7.00
[45]
  pIC50: 7.95
[64]
  pIC50: 8.63
[46]
  pIC50: 7.71
[65]
  pIC50: < 7.00
[47]
  pIC50: 7.43
[48]
  pIC50: 8.99
[49]
  pIC50: 8.85
[50]
  pIC50: 7.03
[51]
  pIC50: 8.95
[52]
  pIC50: 7.77
[66]
  pIC50: 8.21
[53]
  pIC50: < 7.00
[54]
  pIC50: 7.49
[55]
  pIC50: 8.49
[56]
  pIC50: 8.12
